Activity calls are given as the source filed them.
Assays:
Type in all cases: functional, organism-based
Bacillus subtilis = test: Antimicrobial activity against Bacillus subtilis at 5 ug/disk
Staphylococcus aureus = test: Antimicrobial activity against Staphylococcus aureus at 10 ug/disk
Candida albicans = test: Antimicrobial activity against Candida albicans at 25 ug/disk

Measured: Activity

CNC(Cc1cc(Br)c(OC)c(Br)c1)C(=O)NCCCOc1c(Br)cc(CCN(C)C)cc1Br (stereo not drawn)
active: all assays above

Reference: ChEMBL document CHEMBL1150181, “Chemistry of Sponges, VIII. Anomoian A, a Bromotyrosine Derivative from Anomoiantbella popeae” (J Nat Prod, 1990)
